According to article PMC10322702 (Nature Chemistry, 2023):
Values joined by “and” are separate entries in the source; they are usually repeats but may differ in a detail not shown here. Identical values can stand only once. Numbered stars: 1 amine (or outer) side, 2 acyl side, 3 side chain; on linkers, the order of the positions; unused ones are H or OH. Bridge positions count the residues as written; N and C are the ends. Square brackets hold non-standard residues; d marks the D form. Peptide text beside a SMILES is read from it. Acbc(cis-1,3) = O=C([C@H]1C[C@@H](N[*:1])C1)[*:2]; X1 = O=C([C@@H]1CC[C@H](N[*:1])C1)[*:2]

Experiments:
SARS-CoV-2 M^pro [1] = target: T1, SARS-CoV-2 M^pro (Severe acute respiratory syndrome coronavirus 2, UniProt P0DTD1); experiment: biochemical; assay type: biochemical
[2] = Serum stability assay in human serum (LC/MS)
SARS-CoV-2 M^pro [3] = target: T1, SARS-CoV-2 M^pro; experiment: biochemical; assay type: binding; conditions: for kon: read-out: ka (kinetic association)
[4] = 37 °C, incubation time 1 h, relative to 0 h = 100%, technical replicates, 60 min
[5] = 37 °C, incubation time 4 h, relative to 0 h = 100%, technical replicates, 240 min
[6] = 37 °C, incubation time 8 h, relative to 0 h = 100%, technical replicates, 480 min
[7] = 37 °C, incubation time 24 h, relative to 0 h = 100%, technical replicates, 1440 min
[8] = 37 °C, incubation time 50 h, relative to 0 h = 100%, technical replicates, 3000 min
[9] = 37 °C, incubation time 100 h, relative to 0 h = 100%, technical replicates, 6000 min
[10] = human, Remaining peptide (%), 37 °C, incubation time 1 h, relative to 0 h = 100%, technical replicates
[11] = human, Remaining peptide (%), 37 °C, incubation time 4 h, relative to 0 h = 100%, technical replicates
[12] = human, Remaining peptide (%), 37 °C, incubation time 8 h, relative to 0 h = 100%, technical replicates
[13] = human, Remaining peptide (%), 37 °C, incubation time 24 h, relative to 0 h = 100%, technical replicates
[14] = human, Remaining peptide (%), 37 °C, incubation time 50 h, relative to 0 h = 100%, technical replicates
[15] = human, Remaining peptide (%), 37 °C, incubation time 100 h, relative to 0 h = 100%, technical replicates
[16] = 37 °C, incubation time 2 h, relative to 0 h = 100%, technical replicates, 120 min
[17] = human, Remaining peptide (%), 37 °C, incubation time 2 h, relative to 0 h = 100%, technical replicates

CC[C@H](C)[C@@H]1NC(=O)[C@H](Cc2ccc(O)cc2)NC(=O)[C@H](CC(C)C)NC(=O)[C@H](CC(=O)O)NC(=O)[C@H](CCCNC(=N)N)NC(=O)[C@H](Cc2ccccc2)NC(=O)[C@@H]2CC[C@@H](C2)NC(=O)[C@H](Cc2c[nH]cn2)NC(=O)[C@H](Cc2ccccc2)NC(=O)[C@@H](Cc2ccc(O)cc2)NC(=O)CSC[C@H](C(N)=O)NC(=O)CNC(=O)[C@H](CC(C)C)NC1=O [GM5] ({CH2CO}-[dY]FH[X1]FRDLYILG[dC]-NH2; thioether N-13)
IC50 (SARS-CoV-2 M^pro [1]): 40 nM
inhibition at 1.86 µM (SARS-CoV-2 M^pro [1]): 100%
inhibition at 5.62 µM (SARS-CoV-2 M^pro [1]): 100%
inhibition at 16.6 µM (SARS-CoV-2 M^pro [1]): 100%
inhibition at 50.1 µM (SARS-CoV-2 M^pro [1]): 100%
inhibition at […] (SARS-CoV-2 M^pro [1]): 100%
Remaining peptide (%) [2, 4]: 101.31% and 104.14%
Remaining peptide (%) [2, 5]: 77.04% and 80.18%
Remaining peptide (%) [2, 6]: 83.97% and 82.30%
Remaining peptide (%) [2, 7]: 66.27% and 59.32%
Remaining peptide (%) [2, 8]: 29.51% and 26.23%
Remaining peptide (%) [2, 9]: 20.75% and 19.44%
half-life at 10 μM ([2]; human): 32 h
remaining at 1 h, 10 μM [2, 10]: 101%
remaining at 4 h, 10 μM [2, 11]: 78.7%
remaining at 8 h, 10 μM [2, 12]: 83%
remaining at 24 h, 10 μM [2, 13]: 58.4%
remaining at 50 h, 10 μM [2, 14]: 30.7%
remaining at 100 h, 10 μM [2, 15]: 19.9%
Kd (SARS-CoV-2 M^pro [3]): 5.2 nM
kd (kinetic dissociation) (SARS-CoV-2 M^pro [3]): 1.2 10^-3 s^-1
kon (SARS-CoV-2 M^pro [3]): 240000 M⁻¹ s⁻¹

CC(C)C[C@@H]1NC(=O)[C@H]([C@@H](C)O)NC(=O)[C@H](Cc2ccc(O)cc2)NC(=O)[C@H]([C@@H](C)O)NC(=O)[C@H](Cc2c[nH]cn2)NC(=O)[C@@H]2CCCN2C(=O)[C@@H]2CCCN2C(=O)[C@H](Cc2ccccc2)NC(=O)[C@H](C)NC(=O)[C@H](Cc2c[nH]cn2)NC(=O)[C@H](Cc2ccccc2)NC(=O)[C@@H](Cc2ccc(O)cc2)NC(=O)CSC[C@H](C(N)=O)NC1=O [GM1γ^14A] ({CH2CO}-[dY]FHAFPPHTYTL[dC]-NH2; thioether N-13)
IC50 (SARS-CoV-2 M^pro [1]): > 5000 nM
inhibition of M^pro (in words) (SARS-CoV-2 M^pro [1]): inhibition was ablated
Remaining peptide (%) [2, 4]: 87.05% and 85.28%
Remaining peptide (%) [2, 16]: 71.54% and 71.96%
Remaining peptide (%) [2, 5]: 65.45% and 64.12%
Remaining peptide (%) [2, 6]: 51.43% and 52.89%
Remaining peptide (%) [2, 7]: 25.58% and 25.19%
Remaining peptide (%) [2, 8]: 4.30% and 4.38%
half-life at 10 μM ([2]; human): 8.3 h
remaining at 1 h, 10 μM [2, 10]: 84.3%
remaining at 2 h, 10 μM [2, 17]: 70.6%
remaining at 4 h, 10 μM [2, 11]: 63.2%
remaining at 8 h, 10 μM [2, 12]: 56.1%
remaining at 24 h, 10 μM [2, 13]: 26.4%
remaining at 50 h, 10 μM [2, 14]: 4.46%
Kd (SARS-CoV-2 M^pro [3]): 10 nM
fold change in binding affinity relative to the original peptide (SARS-CoV-2 M^pro [3]): fourfold weaker
kd (kinetic dissociation) (SARS-CoV-2 M^pro [3]): 3.2 10^-3 s^-1
kon (SARS-CoV-2 M^pro [3]): 320000 M⁻¹ s⁻¹

CC(C)C[C@@H]1NC(=O)[C@H](C)NC(=O)[C@H](Cc2c[nH]cn2)NC(=O)[C@H](Cc2ccccc2)NC(=O)[C@@H](Cc2ccc(O)cc2)NC(=O)CSC[C@H](C(N)=O)NC(=O)CNC(=O)[C@@H]2CCCN2C(=O)[C@H](CCCNC(=N)N)NC(=O)[C@H](Cc2ccc(O)cc2)NC(=O)CNC(=O)[C@H](CC(C)C)NC(=O)[C@H](CC(N)=O)NC1=O [GM4γ^14A] ({CH2CO}-[dY]FHALNLGYRPG[dC]-NH2; thioether N-13)
IC50 (SARS-CoV-2 M^pro [1]): 10 nM
inhibition at 0.209 µM (SARS-CoV-2 M^pro [1]): 100%
inhibition at 1.86 µM (SARS-CoV-2 M^pro [1]): 100%
inhibition at 5.62 µM (SARS-CoV-2 M^pro [1]): 100%
inhibition at 16.6 µM (SARS-CoV-2 M^pro [1]): 100%
inhibition at 50.1 µM (SARS-CoV-2 M^pro [1]): 100%
inhibition at […] (SARS-CoV-2 M^pro [1]): 100%
Remaining peptide (%) [2, 4]: 80.98% and 76.08%
Remaining peptide (%) [2, 16]: 68.35% and 66.59%
Remaining peptide (%) [2, 5]: 75.33% and 71.01%
Remaining peptide (%) [2, 6]: 60.41% and 56.42%
Remaining peptide (%) [2, 7]: 37.15% and 33.37%
Remaining peptide (%) [2, 8]: 12.36% and 12.37%
Remaining peptide (%) [2, 9]: 2.74% and 5.40% and 2.53%
half-life at 10 μM ([2]; human): 11 h
remaining at 1 h, 10 μM [2, 10]: 74.2%
remaining at 2 h, 10 μM [2, 17]: 67.6%
remaining at 4 h, 10 μM [2, 11]: 66.7%
remaining at 8 h, 10 μM [2, 12]: 53.6%
remaining at 24 h, 10 μM [2, 13]: 32.3%
remaining at 50 h, 10 μM [2, 14]: 12.3%
Kd (SARS-CoV-2 M^pro [3]): 2.4 nM
kd (kinetic dissociation) (SARS-CoV-2 M^pro [3]): 2.6 10^-3 s^-1
kon (SARS-CoV-2 M^pro [3]): 1.1e+06 M⁻¹ s⁻¹

CC(C)C[C@@H]1NC(=O)[C@@H](Cc2ccc(O)cc2)NC(=O)CSC[C@H](C(N)=O)NC(=O)[C@H](C)NC(=O)[C@H](C)NC(=O)[C@H](Cc2ccc(O)cc2)NC(=O)[C@H](CCCNC(=N)N)NC(=O)[C@H](Cc2ccc(O)cc2)NC(=O)[C@H](C)NC(=O)[C@H](CO)NC(=O)[C@H](Cc2ccc(O)cc2)NC(=O)[C@H]([C@@H](C)O)NC(=O)[C@H](CO)NC(=O)[C@H](C)NC(=O)[C@H](Cc2ccc(O)cc2)NC(=O)[C@H](Cc2c[nH]cn2)NC1=O [GM3γ^210A] ({CH2CO}-[dY]LHYASTYSAYRYAA[dC]-NH2; thioether N-16)
IC50 (SARS-CoV-2 M^pro [1]): 120 nM
inhibition at 0.309 µM (SARS-CoV-2 M^pro [1]): 77.9%
inhibition at 0.933 µM (SARS-CoV-2 M^pro [1]): 95.6%
inhibition at 2.75 µM (SARS-CoV-2 M^pro [1]): 100%
inhibition at 8.32 µM (SARS-CoV-2 M^pro [1]): 100%
Remaining peptide (%) ([2]; 37 °C, incubation time 0.5 h, relative to 0 h = 100%, technical replicates, 30 min): 47.41% and 46.64%
Remaining peptide (%) [2, 4]: 35.60% and 33.84%
Remaining peptide (%) [2, 16]: 15.90% and 15.53%
Remaining peptide (%) [2, 5]: 6.44% and 7.19%
Remaining peptide (%) [2, 6]: 2.01%
half-life at 10 μM ([2]; human): 0.59 h
remaining at 0.5 h, 10 μM ([2]; human, Remaining peptide (%), 37 °C, incubation time 0.5 h, relative to 0 h = 100%, technical replicates): 44.4%
remaining at 1 h, 10 μM [2, 10]: 33.1%
remaining at 2 h, 10 μM [2, 17]: 17%
remaining at 4 h, 10 μM [2, 11]: 7.23%
remaining at 8 h, 10 μM [2, 12]: 2.04%
remaining at 24 h, 10 μM [2, 13]: 0%
Kd (SARS-CoV-2 M^pro [3]): 7.5 nM
fold change in binding affinity relative to the original peptide (SARS-CoV-2 M^pro [3]): eightfold stronger
kd (kinetic dissociation) (SARS-CoV-2 M^pro [3]): 2.1 10^-3 s^-1
kon (SARS-CoV-2 M^pro [3]): 280000 M⁻¹ s⁻¹

CC(C)C[C@@H]1NC(=O)[C@H]([C@@H](C)O)NC(=O)[C@H](Cc2ccc(O)cc2)NC(=O)[C@H]([C@@H](C)O)NC(=O)[C@H](Cc2c[nH]cn2)NC(=O)[C@@H]2CCCN2C(=O)[C@@H]2CCCN2C(=O)[C@H](Cc2ccccc2)NC(=O)[C@H]2C[C@H](C2)NC(=O)[C@H](Cc2c[nH]cn2)NC(=O)[C@H](Cc2ccccc2)NC(=O)[C@@H](Cc2ccc(O)cc2)NC(=O)CSC[C@H](C(N)=O)NC1=O [GM1] ({CH2CO}-[dY]FH[Acbc(cis-1,3)]FPPHTYTL[dC]-NH2; thioether N-13)
IC50 (SARS-CoV-2 M^pro [1]): 40 nM
inhibition at 0.000141 µM (SARS-CoV-2 M^pro [1]): 4.71%
inhibition at 0.0347 µM (SARS-CoV-2 M^pro [1]): 43.7%
inhibition at 0.102 µM (SARS-CoV-2 M^pro [1]): 75.5%
inhibition at 0.309 µM (SARS-CoV-2 M^pro [1]): 93.7%
inhibition at 0.933 µM (SARS-CoV-2 M^pro [1]): 100%
inhibition at 2.75 µM (SARS-CoV-2 M^pro [1]): 100%
inhibition at 8.32 µM (SARS-CoV-2 M^pro [1]): 100%
Remaining peptide (%) [2, 4]: 111.08% and 111.88%
Remaining peptide (%) [2, 5]: 108.25% and 114.45%
Remaining peptide (%) [2, 6]: 111.46% and 107.42%
Remaining peptide (%) [2, 7]: 74.66% and 74.47%
Remaining peptide (%) [2, 8]: 63.33% and 64.88%
Remaining peptide (%) [2, 9]: 44.95% and 47.73%
half-life at 10 μM ([2]; human): 90 h
remaining at 1 h, 10 μM [2, 10]: 111%
remaining at 4 h, 10 μM [2, 11]: 115%
remaining at 8 h, 10 μM [2, 12]: 116%
remaining at 24 h, 10 μM [2, 13]: 77.3%
remaining at 50 h, 10 μM [2, 14]: 67.1%
remaining at 100 h, 10 μM [2, 15]: 49%
Kd (SARS-CoV-2 M^pro [3]): 2.3 nM
kd (kinetic dissociation) (SARS-CoV-2 M^pro [3]): 0.94 10^-3 s^-1
kon (SARS-CoV-2 M^pro [3]): 410000 M⁻¹ s⁻¹
